Several values for one entry are separate records, joined by “and”; a condition that tells them apart may be missing. Identical values can stand only once. Ends that are not written are not given here. * marks the point of attachment. Biotin = O=C1N[C@H]2[C@H](CS[C@H]2CCCCC(=O)*)N1
What was measured:
antibodies to C. abortus = test: ELISA, serological reactivity of biotinylated peptides against serum dilutions (Tables 1 and 2); type: binding, sheep
Method: (§1) Application of the peptide mixture is performed as follows:
(§2) Two dilutions of standard serum are used.
The data illustrate that the length of compound has a major impact on serological reactivity.
Thus, substitutions within the core epitopes described in this invention are possible without too much loss in compound serological reactivity.

[1] = test system: sera from ewes known not to have been infected with C. abortus; SPF lamb antisera; test: ELISA, specificity of peptides with sera from uninfected ewes and SPF lamb antisera (first Table 4); type: binding, sheep; design: reactivity with serum (quantity not given): unit not given here
Method: as §1, §2
Specificities of Peptides 2-9,2-10, 1B, 1A/1A and 4B/4B as tested with sera from ewes known not to have been infected with C. abortus, and which had shown positive reactivity in previous tests with various forms of VS 1 and VS2.

[2] = SPF lamb antiserum 2406/2 C.ab, vaccinated with 28/68 (C. abortus)
[3] = SPF lamb antiserum 2407/2 W73, vaccinated with W73 (C. pecorum)
[4] = SPF lamb antiserum F6/2 Cap.ab, vaccinated with Cap. abortion 15 (C. abortus)
[5] = SPF lamb serum 2397/1, pre-vaccination
[6] = SPF lamb antiserum 2397/2 C.ab, vaccinated with S26/3 (C. abortus)
[7] = SPF lamb antiserum 2401/2 C.ab, vaccinated with S26/3 (C. abortus)
[8] = SPF lamb antiserum 2405/2 C.ab, vaccinated with 28/28 (C. abortus)

| Substance | Net Optical Density (antibodies to C. abortus; serum dilution 1/100) | Net Optical Density (antibodies to C. abortus; serum dilution 1/200) | Net Optical Density (antibodies to C. abortus; serum dilution 1/400) | Net Optical Density (antibodies to C. abortus; serum dilution 1/800) | Net Optical Density (antibodies to C. abortus; serum dilution 1/1600) | Net Optical Density (antibodies to C. abortus; serum dilution 1/3200) | Net Optical Density (antibodies to C. abortus; serum dilution 1/6400) | reactivity with serum (quantity not given) [1, 2] | reactivity with serum (quantity not given) [1, 3] | reactivity with serum (quantity not given) [1, 4] | reactivity with serum (quantity not given) [1, 5] | reactivity with serum (quantity not given) ([1]; serum of animal no. A2213) | reactivity with serum (quantity not given) ([1]; serum of animal no. B2123) | reactivity with serum (quantity not given) [1, 6] | reactivity with serum (quantity not given) [1, 7] | reactivity with serum (quantity not given) [1, 8] | reactivity with serum (quantity not given) ([1]; serum of animal no. 1354R) | other results |
| --- | --- | --- | --- | --- | --- | --- | --- | --- | --- | --- | --- | --- | --- | --- | --- | --- | --- | --- |
| Biotin-KKKKKGLIGVKGSSIAAD [Compound 2-5] | 2.344 | 1/468 and 1.468 | 0.771 | 0.358 | 0.156 | 0.066 | 0.036 | – | – | – | – | – | – | – | – | – | – | – |
| ATALDTSNKFATALDTSNKFA (ATALDTSNKFATALDTSNKFA) [Compound 4B/4B] | – | – | – | – | – | – | – | OVER | 0.8 | 0.7 | 0.8 | OVER | 0.4 | – | – | – | – | reactivity with serum (quantity not given) ([1]; SPF lamb antiserum F1/2 S45, vaccinated with S45 (C. suis)): 1.2; reactivity with serum (quantity not given) ([1]; SPF lamb antiserum F8/2 P787, vaccinated with P787 (C. pecorum)): 0.4; reactivity with serum (quantity not given) ([1]; SPF lamb serum F1/1, pre-vaccination): 0.5; reactivity with serum (quantity not given) ([1]; serum of animal no. 3178): 0.6; reactivity with serum (quantity not given) ([1]; serum of animal no. 3201): 1.7; reactivity with serum (quantity not given) ([1]; serum of animal no. A2261): 0.4; reactivity with serum (quantity not given) ([1]; serum of animal no. X2895): 0.5; reactivity with serum (quantity not given) ([1]; serum of animal no. X2899): 0.4; reactivity with serum (quantity not given) ([1]; serum of animal no. Z148): 0.7; reactivity with serum (quantity not given) ([1]; serum of animal no. Z2618): 0.55; reactivity with serum (quantity not given) ([1]; serum of animal no. Z2646): 1.0; reactivity with serum (quantity not given) ([1]; serum of animal no. Z2739): 0.4 |
| Biotin-KGSSIAAD [Compound 2-1] | 0.000 | 0.000 | 0.000 | 0.000 | 0.000 | 0.000 | 0.000 | – | – | – | – | – | – | – | – | – | – | reactivity (in words) (antibodies to C. abortus; studies of Table 1): no reactivity whatsoever |
| Biotin-KKKKKKKKKKKGSSIAAD [Compound 2-3] | 2.075 | 1.133 | 0.540 | 0.214 | 0.095 | 0.031 | 0.007 | – | – | – | – | – | – | – | – | – | – | – |
| Biotin-KKKKKKGSSIAAD [Compound 2-2] | 1.515 | 0.786 | 0.385 | 0.174 | 0.068 | 0.046 | 0.024 | – | – | – | – | – | – | – | – | – | – | reactivity relative to that displayed by Compound 2-3 (antibodies to C. abortus; studies of Table 1): approximately 70% |
| KTITGMTGTAAANYKTITGM (KTITGMTGTAAANYKTITGM) [Compound 1B] | – | – | – | – | – | – | – | OVER | 1.3 | 0.9 | OVER | OVER | 1.55 | OVER | OVER | OVER | 2.3 | reactivity with serum (quantity not given) ([1]; serum of animal no. 3178): 0.7; reactivity with serum (quantity not given) ([1]; serum of animal no. Z2611): 0.6; reactivity with serum (quantity not given) ([1]; serum of animal no. Z2680): 0.5 |
| Biotin-KKKKKGLIGVKGSS L AAD [Compound 2-11] | 2.008 | 1.230 | 0.637 | 0.299 | 0.133 | 0.053 | 0.026 | – | – | – | – | – | – | – | – | – | – | effect of substituting isoleucine with leucine within Epitope 2 on reactivity (antibodies to C. abortus; 2-9 compared with 2-3, 2-11 compared with 2-5): small decrease in reactivity |
| Biotin-CLIGVKGSSAAD [Compound 2-4] | 2.173 | 1.241 | 0.572 | 0.278 | 0.133 | 0.064 | 0.040 | – | – | – | – | – | – | – | – | – | – | – |
| GVKGSSIAADQGVKGSSIAADQ (GVKGSSIAADQGVKGSSIAADQ) [Compound 2-10] | – | – | – | – | – | – | – | 1.6 | – | – | – | – | – | 3.1 | 1.5 | 2.6 | 0.9 | reactivity with serum (quantity not given) ([1]; serum of animal no. 1715T): 0.3; reactivity with serum (quantity not given) ([1]; serum of animal no. 2948): 0.5; reactivity with serum (quantity not given) ([1]; serum of animal no. 3174): 1.3; reactivity with serum (quantity not given) ([1]; serum of animal no. A2332): 1.0; reactivity with serum (quantity not given) ([1]; serum of animal no. Z2600): 1.1; reactivity with serum (quantity not given) ([1]; serum of animal no. Z2708): 0.55 |
| TGTAAANYKTTGTAAANYKT (TGTAAANYKTTGTAAANYKT) [Compound 1A/1A] | – | – | – | – | – | – | – | OVER | 1.8 | 0.9 | OVER | OVER | 2.0 | OVER | OVER | OVER | 2.3 | specificity compared with 1B (in words) [1]: less specific; reactivity with serum (quantity not given) ([1]; SPF lamb antiserum F4/2 84-796, vaccinated with 84-796 (C. pecorum)): 0.4; reactivity with serum (quantity not given) ([1]; SPF lamb antiserum F7/2 P787, vaccinated with P787 (C. pecorum)): 0.5; reactivity with serum (quantity not given) ([1]; serum of animal no. 2948): 0.6; reactivity with serum (quantity not given) ([1]; serum of animal no. A2261): 0.7; reactivity with serum (quantity not given) ([1]; serum of animal no. Y10-8-14): 1.2; reactivity with serum (quantity not given) ([1]; serum of animal no. Y10-8-37): 0.8; reactivity with serum (quantity not given) ([1]; serum of animal no. Z2611): 1.0; reactivity with serum (quantity not given) ([1]; serum of animal no. Z2646): 0.4; reactivity with serum (quantity not given) ([1]; serum of animal no. Z2656): 0.66 |

Source: patent US20030186887A1, “Compounds for detection of infection by chlamydophila abortus” (priority 2000, published 2003)
